Source: patent US12466840B2, “Small molecule inhibitors of KRAS proteins” (Merck Sharp & Dohme LLC, priority 2023, dated 2025)
Where two headings read alike, the source gives them in different places.

Key:
KRAS G12V = KRAS G12V (Homo sapiens (Human), UniProt P01116, G12V); test: SOS-catalyzed nucleotide exchange assay (GNE), KRAS G12V; type: biochemical; conditions: TR-FRET, 60 min preincubation
Source text: (§1) Procedure for SOS-Catalyzed Nucleotide Exchange Assay for KRAS-WT, G12C/D/V/A/R/S, G13D, Q61H, HRAS-WT, and NRAS-WT
(§2) Recombinant KRAS-G12C protein used in this assay has an additional triple mutation (C51S/C80L/C118S). Whereas KRAS-WT, G12D/V/A/S/R, G13D, Q61H, HRAS and NRAS are in context of their WT protein sequence background. Specifically, the SOS-catalyzed nucleotide exchange assay utilizes a preformed TR-FRET complex containing a specific biotinylated RAS protein (KRAS-WT, G12C/V/D/A/S/R, G13D, Q61H, HRAS-WT, NRAS-WT; described above) with Bodipy-GDP, and Terbium-streptavidin. Compounds are preincubated with this complex for 60 minutes. Subsequently, recombinant human SOS protein and unlabeled GTP are added to initiate the exchange reaction. Small molecule inhibitors stabilize the Bodipy-GDP complex whereas the untreated protein rapidly exchanges Bodipy-GDP for unlabeled GTP resulting in reduced TR-FRET signal.
(§3) To assemble the preformed TR-FRET complexes, each biotinylated RAS protein is diluted to 2 μM in an EDTA Buffer (20 mM HEPES pH 7.5, 50 mM sodium chloride, 10 mM EDTA, and 0.01% Tween) and incubated at room temperature for one hour. This mixture is then further diluted to 90 nM in an Assay Buffer (20 mM HEPES pH 7.5, 150 mM sodium chloride, 10 mM magnesium chloride, and 0.005% Tween) containing 15 nM of Terbium-Streptavidin (Invitrogen, catalog #PV3577) and 900 nM of Bodipy-GDP (Invitrogen, catalog #G22360) and incubated at room temperature for six hours. It should be noted that this preformed TR-FRET complex for each of the RAS protein were made ahead of time, aliquoted and stored at −80° C. until the day of the experiment.
(§4) Each test compound (10 mM stock in DMSO) is diluted in DMSO to make a final-10-point, 3-fold dilution and is acoustically dispensed into a 384-well assay plate (Corning, catalog #3820) using an Echo 550 (Labcyte). Each well of the assay plate receives 3 μL of a specific 3×RAS preformed TR-FRET complex and 3 μL of Assay Buffer and is incubated at room temperature for 60 minutes (preincubation time). Each well then receives 3 μL of 3× recombinant human SOS protein and GTP (Sigma, G8877) in Assay Buffer and is incubated at room temperature for 30 minutes (G13D), 60 minutes (KRAS WT/G12C/D, H/NRAS) or 90 minutes for G12A/R/S/V and Q61H. The final reaction in each well of 9 μL consists of 3 mM GTP, specific Ras and SOS proteins in the following concentrations: KRAS-G12C/SOS=3 nM/40 nM, KRAS-WT and G12D/SOS=1 nM/40 nM, KRAS-G12V/SOS=1.25 nM/160 nM, KRAS-G12A/S/SOS=1 nM/160 nM, KRAS-G12R/SOS=1 nM/320 nM, KRAS-Q61H/SOS=1 nM/320 nM, KRAS-G13D/SOS=1.25 nM/[…], HRAS-WT and NRAS-WT=1.25 nM/40 nM.
(§5) The time-resolved fluorescence resonance energy transfer (TR-FRET) signal is measured on an Envision (PerkinElmer) plate reader: Excitation filter=340 nm; emission1=495 nm; emission2=520 nm; dichroic mirror=D400/D505; delay time=[…]. The signal of each well is determined as the ratio of the emission at 520 nm to that at 495 nm. Percent effect of each well is determined after normalization to control wells containing DMSO (no effect) or a saturating concentration of inhibitor (max effect). The apparent effect as a function of compound concentration is fit to a four-parameter logistic equation.

KRAS G13D = KRAS G13D (Homo sapiens (Human), UniProt P01116, G13D); test: SOS-catalyzed nucleotide exchange assay (GNE), KRAS G13D; type: biochemical; conditions: TR-FRET, 60 min preincubation
Source text: as §1, §2, §3, §4, §5

KRAS Q61H = KRAS Q61H (Homo sapiens (Human), UniProt P01116, Q61H); test: SOS-catalyzed nucleotide exchange assay (GNE), KRAS Q61H; type: biochemical; conditions: TR-FRET, 60 min preincubation
Source text: as §1, §2, §3, §4, §5

[1] = test system: MKN-1 cells (amplified wild-type KRAS); test: Cellular phospho-ERK assay, MKN-1 cells; type: cell-based; conditions: 2 h, p-ERK vs. total ERK, read-out: MKN1 pERK IC50
Procedure: Procedure for Cellular Phospho-ERK Assay in KRAS Wild Type and Mutant (G12D, G12V) Cell Lines
MKN-1 cells (JCRB JCRB0252) containing amplified wild-type KRAS, were cultured in growth medium that contains RPMI 1640-GlutaMAX™-I (ThermoFisher Scientific 61870) containing 10% heat inactivated fetal bovine serum (ThermoFisher Scientific 10091148), 1 mM sodium pyruvate and 10 mM HEPES. AsPC-1 cells (ATCC® CRL-1682™), containing homozygous KRAS-G12D activating mutation, were cultured in T150 flask in growth medium (RPMI medium 1640-GlutaMAX™-I (ThermoFisher Scientific 61870) containing 10% fetal bovine serum (ThermoFisher Scientific 10091148)). SW620 cells (ATCC® CRL-227™) containing homozygous KRAS-G12V activating mutation, were cultured in growth medium that contains RPMI 1640-GlutaMAX™-I (ThermoFisher Scientific 61870) containing 10% heat inactivated fetal bovine serum (ThermoFisher Scientific 10091148).
Cells for the assay were harvested in growth medium after TrypLE (ThermoFisher scientific 12604021) digestion and were seeded in a 384-well collagen coated cell culture plate (Corning 356702) at a density of 10,000-15,000 cells/[…]/well, and incubated at 37° C., 5% CO2 overnight. The compound (with 10 mM stock concentration) dose-response titrations were prepared [30 μM final ERK detection assay concentration and 1:3 dilutions, 10-point dose response] and appropriate amounts (270 nL) of test compounds were dispensed in a 384-well intermediate plate using an Echo 550 liquid handler. 30 μL/well of RPMI medium 1640-GlutaMAX™-I was added to the intermediate plate and the contents of the intermediate plate (10 μL/well) were then transferred to the 384-well collagen coated cell culture plate, which was incubated at 37° C., 5% CO2 for 2 h. After removal of medium from the collagen coated cell culture plate, cells were lysed in lysis buffer from Alpha SureFire® Ultra™ Multiplex p-ERK and total ERK assay kit (PerkinElmer MPSU-PTERK) containing Halt™ Protease and Phosphatase inhibitor cocktail (ThermoFisher Scientific 78446) at room temperature with constant shaking at 300 rpm for 30 minutes. The cell lysates were then transferred to an OptiPlate-384 plate (PerkinElmer 6005620), and the phosphorylation of ERK (p-ERK) and total ERK levels were detected by Alpha SureFire® Ultra™ Multiplex p-EEK kit and total ERK assay kit (PerkinElmer MPSU-PTERK) following the manufacturer's protocol. Assay plates were read on a EnVision Multimode Plate Reader (PerkinElmer), and the ratio of p-ERK vs. total ERK in each well was used as the final readout. Dose response curves were analyzed using a 4-parameter logistic model to calculate IC50 values using Spotfire software.

KRAS G12V, sequence (P01116 other isoform, or with tags, fused parts or gaps G12V (already in the parent)): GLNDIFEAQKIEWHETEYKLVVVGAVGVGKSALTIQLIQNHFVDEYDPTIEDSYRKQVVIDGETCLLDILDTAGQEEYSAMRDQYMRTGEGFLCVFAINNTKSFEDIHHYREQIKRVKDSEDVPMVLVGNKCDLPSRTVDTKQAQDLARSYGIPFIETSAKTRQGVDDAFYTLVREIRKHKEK
KRAS Q61H, sequence (P01116 other isoform, or with tags, fused parts or gaps Q61H (already in the parent)): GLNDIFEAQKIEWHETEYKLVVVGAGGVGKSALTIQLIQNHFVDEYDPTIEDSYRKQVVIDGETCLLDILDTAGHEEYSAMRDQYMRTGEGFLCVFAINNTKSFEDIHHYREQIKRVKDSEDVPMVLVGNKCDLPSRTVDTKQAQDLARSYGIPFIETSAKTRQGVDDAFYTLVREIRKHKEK
KRAS G13D, sequence (P01116 other isoform, or with tags, fused parts or gaps G13D (already in the parent)): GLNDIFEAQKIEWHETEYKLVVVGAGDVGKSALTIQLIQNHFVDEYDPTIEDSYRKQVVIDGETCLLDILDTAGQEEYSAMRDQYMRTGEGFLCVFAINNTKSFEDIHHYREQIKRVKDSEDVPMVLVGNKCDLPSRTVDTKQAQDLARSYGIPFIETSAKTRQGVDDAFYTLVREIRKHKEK

CCc1c(F)ccc2cc3[nH]nc(C)c3c(-c3nc4c5c(nc(OC[C@@]67CCCN6C[C@H](F)C7)nc5c3F)N3CCCOC[C@H]3CO4)c12 [Ex-6, (8aS)-5-(5-ethyl-6-fluoro-3-methyl-1H-benzo[f]indazol-4-yl)-4-fluoro-2-(((2R,7aS)-2-fluorotetrahydro-1H-pyrrolizin-7a(5H)-yl)methoxy)-8a,9,12,13-tetrahydro-8H,11H-7,10-dioxa-1,3,6,13a-tetraazanaphtho[1,8-ab]heptalene]
IC50 (KRAS G12V): 1.5 nM
IC50 (KRAS G13D): 1.9 nM
IC50 (KRAS Q61H): 1.8 nM
IC50 ([1]; Homo sapiens): 14 nM

CCc1c(F)ccc2cc3[nH]ncc3c(-c3nc4c5c(nc(OC[C@@]67CCCN6C/C(=C\F)C7)nc5c3F)N3CCCOC[C@H]3CO4)c12 [Ex-4, (8aS)-5-(5-ethyl-6-fluoro-1H-benzo[f]indazol-4-yl)-4-fluoro-2-(((S,Z)-2-(fluoromethylene)tetrahydro-1H-pyrrolizin-7a(5H)-yl)methoxy)-8a,9,12,13-tetrahydro-8H,11H-7,10-dioxa-1,3,6,13a-tetraazanaphtho[1,8-ab]heptalene]
IC50 (KRAS G12V): 0.83 nM
IC50 (KRAS G13D): 0.89 nM
IC50 (KRAS Q61H): 1 nM
IC50 ([1]; Homo sapiens): 6.6 nM

Fc1c(-c2c(C3CC3)c(Cl)cc3[nH]ncc23)nc2c3c(nc(OC[C@@]45CCCN4C[C@H](F)C5)nc13)N1CCCOC[C@H]1CO2 [Ex-3, (8aS)-5-(6-chloro-5-cyclopropyl-1H-indazol-4-yl)-4-fluoro-2-(((2R,7aS)-2-fluorotetrahydro-1H-pyrrolizin-7a(5H)-yl)methoxy)-8a,9,12,13-tetrahydro-8H,11H-7,10-dioxa-1,3,6,13a-tetraazanaphtho[1,8-ab]heptalene]
IC50 (KRAS G12V): 3 nM
IC50 ([1]; Homo sapiens): 9.7 nM

F/C=C1/CN2CCC[C@@]2(COc2nc3c4c(nc(-c5c(C6CC6)c(Cl)cc6[nH]ncc56)c(F)c4n2)OC[C@@H]2COCCCN32)C1 [Ex-1, (8aS)-5-(6-chloro-5-cyclopropyl-1H-indazol-4-yl)-4-fluoro-2-(((S,Z)-2-(fluoromethylene)tetrahydro-1H-pyrrolizin-7a(5H)-yl)methoxy)-8a,9,12,13-tetrahydro-8H,11H-7,10-dioxa-1,3,6,13a-tetraazanaphtho[1,8-ab]heptalene]
IC50 (KRAS G12V): 1.3 nM
IC50 (KRAS G13D): 3.7 nM
IC50 (KRAS Q61H): 1.4 nM
IC50 [1]: 9.1 nM

CCc1c(F)ccc2cc3[nH]ncc3c(-c3nc4c5c(nc(OC[C@@]67CCCN6C[C@H](F)C7)nc5c3F)N3CCCOC[C@H]3CO4)c12 [Ex-2, (8aS)-5-(5-ethyl-6-fluoro-1H-benzo[f]indazol-4-yl)-4-fluoro-2-(((2R,7aS)-2-fluorotetrahydro-1H-pyrrolizin-7a(5H)-yl)methoxy)-8a,9,12,13-tetrahydro-8H,11H-7,10-dioxa-1,3,6,13a-tetraazanaphtho[1,8-ab]heptalene]
IC50 (KRAS G12V): 1.3 nM
IC50 (KRAS G13D): 1 nM
IC50 (KRAS Q61H): 1.2 nM
IC50 [1]: 7.9 nM

F/C=C1\CN2CCC[C@@]2(COc2nc3c4c(nc(-c5c(C6(F)CC6)c(Cl)cc6[nH]ncc56)c(F)c4n2)OC[C@@H]2COCCCN32)C1 [Ex-5, (8aS)-5-(6-chloro-5-(1-fluorocyclopropyl)-1H-indazol-4-yl)-4-fluoro-2-(((S,Z)-2-(fluoromethylene)tetrahydro-1H-pyrrolizin-7a(5H)-yl)methoxy)-8a,9,12,13-tetrahydro-8H,11H-7,10-dioxa-1,3,6,13a-tetraazanaphtho[1,8-ab]heptalene]
IC50 (KRAS G12V): 0.98 nM
IC50 (KRAS G13D): 1.2 nM
IC50 (KRAS Q61H): 0.97 nM
IC50 ([1]; Homo sapiens): 4.3 nM

CCc1c(F)ccc2cc3[nH]nc(C)c3c(-c3nc4c5c(nc(OC[C@@]67CCCN6C/C(=C\F)C7)nc5c3F)N3CCCOC[C@H]3CO4)c12 [Ex-7, (8aS)-5-(5-ethyl-6-fluoro-3-methyl-1H-benzo[f]indazol-4-yl)-4-fluoro-2-(((S,Z)-2-(fluoromethylene)tetrahydro-1H-pyrrolizin-7a(5H)-yl)methoxy)-8a,9,12,13-tetrahydro-8H,11H-7,10-dioxa-1,3,6,13a-tetraazanaphtho[1,8-ab]heptalene]
IC50 (KRAS G12V): 2.8 nM
IC50 (KRAS G13D): 2.4 nM
IC50 (KRAS Q61H): 2.8 nM
IC50 [1]: 12 nM
